These results are taken from publication PMC8496750, “Identification of the organic anion transporting polypeptides responsible for the hepatic uptake of the major metabolite of epyrifenacil, S‐3100‐CA, in mice” (Pharmacology Research & Perspectives, 2021).

Bounds are passed on as bounds.

Data set [1] deals with T1, mouse Oatp1a4 (Mus musculus, UniProt Q9EP96).
T1 sequence (Q9EP96 1-670): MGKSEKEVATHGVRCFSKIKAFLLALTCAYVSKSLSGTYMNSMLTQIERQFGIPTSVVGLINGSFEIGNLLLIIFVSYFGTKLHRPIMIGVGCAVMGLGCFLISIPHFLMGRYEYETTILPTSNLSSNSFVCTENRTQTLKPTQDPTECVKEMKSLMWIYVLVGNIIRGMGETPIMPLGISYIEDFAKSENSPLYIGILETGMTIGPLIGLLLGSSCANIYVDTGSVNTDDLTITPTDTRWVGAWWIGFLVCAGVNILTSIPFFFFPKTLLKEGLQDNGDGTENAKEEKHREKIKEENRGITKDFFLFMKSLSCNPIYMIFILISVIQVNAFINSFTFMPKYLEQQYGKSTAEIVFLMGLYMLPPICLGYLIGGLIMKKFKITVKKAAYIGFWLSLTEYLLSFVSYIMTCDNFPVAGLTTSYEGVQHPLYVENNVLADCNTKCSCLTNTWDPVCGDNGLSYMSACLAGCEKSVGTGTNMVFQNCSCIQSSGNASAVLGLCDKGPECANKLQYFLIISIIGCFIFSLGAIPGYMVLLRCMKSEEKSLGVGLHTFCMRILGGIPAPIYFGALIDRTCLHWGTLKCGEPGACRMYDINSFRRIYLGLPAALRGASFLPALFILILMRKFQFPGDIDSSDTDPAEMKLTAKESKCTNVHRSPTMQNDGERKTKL
The data set can be described thus: in vitro. As to conditions: 293FT cells transiently transfected with mouse Oatp1a4, probe radiolabeled S‐3100‐CA.
Experimental: (§1) Transport experiments were conducted approximately 24 h post‐transfection. The experiments were initiated by aspirating culture medium and addition of pre‐warmed radiolabeled substrate solution (final 1.0% of acetonitrile or 0.9% of ethanol in phosphate‐buffered saline (PBS[−])) to each well. After a 10‐min incubation, cells were washed twice with 1 ml of ice‐cold PBS(−) and lysed with 700 μl of 1.0 M NaOH for 3 h or more at room temperature. The lysate was transferred to a 1.5‐ml tube, and neutralized with 350 μl of 2.0 M HCl and 350 μl of 2.0% sodium dodecyl sulfate (SDS) solution. From the lysate, 1.0 ml was transferred to a vial containing 10 ml of Emulsifier Scintillator Plus to measure the radioactivity in the LSC. The protein concentration of the cell lysate was also measured using a Pierce™ BCA Protein Assay Kit (Thermo Fisher Scientific, Inc.), which was used to normalize, according to the cell number, the radioactivity in the cell lysate extract. The protein assay was performed in duplicate. Each sample type was assayed in triplicate wells, and each run was performed twice. […] Each sample type was assayed in triplicate wells.

For data set [2], the system named is various OATPs. Put plainly: Inhibition of S‐3100‐CA uptake by OATP inhibitors, various OATPs. The data set is classed as in vitro ADME, mouse, human. The note with it: inhibitor at 100 μM. The procedure:
293FT cells were purchased from Thermo Fisher Scientific, Inc.. The cells were grown in Dulbecco's modified Eagle medium (supplemented with 4.5 g/L glucose and 2 mM L‐glutamine) at 37°C, 5% CO2, and 95% humidity. The cells were passaged 3 times per week by harvesting cells using trypsin and plating at a density of 1.0 × 10^4 cells/cm^2 in a 10 cm cell culture plate for maintenance culture. The 293FT cells were detached using trypsin and re‐seeded at a density of 2.5 × 10^4 cells/cm^2 in BioCoat™ Collagen I 6‐well plates (Corning Inc.) for transfection and then treated with 1.2 μg of plasmid vector and 3.2 μl of Lipofectamine™ 2000 Transfection Reagent (Thermo Fisher Scientific, Inc.) according to the manufacturer's instructions. After a 3‐h treatment, the transfection medium was replaced with a fresh cell culture medium and incubated at 37°C with 95% humidity and 5% CO2 until ready for the assay.
Transport experiments were conducted approximately 24 h post‐transfection. […] From the lysate, 1.0 ml was transferred to a vial containing 10 ml of Emulsifier Scintillator Plus to measure the radioactivity in the LSC. The protein concentration of the cell lysate was also measured using a Pierce™ BCA Protein Assay Kit (Thermo Fisher Scientific, Inc.), which was used to normalize, according to the cell number, the radioactivity in the cell lysate extract. […]

In data set [3] the target is T2, mouse Oatp1a1 (Mus musculus, UniProt Q9QXZ6).
T2 sequence (Q9QXZ6 1-670): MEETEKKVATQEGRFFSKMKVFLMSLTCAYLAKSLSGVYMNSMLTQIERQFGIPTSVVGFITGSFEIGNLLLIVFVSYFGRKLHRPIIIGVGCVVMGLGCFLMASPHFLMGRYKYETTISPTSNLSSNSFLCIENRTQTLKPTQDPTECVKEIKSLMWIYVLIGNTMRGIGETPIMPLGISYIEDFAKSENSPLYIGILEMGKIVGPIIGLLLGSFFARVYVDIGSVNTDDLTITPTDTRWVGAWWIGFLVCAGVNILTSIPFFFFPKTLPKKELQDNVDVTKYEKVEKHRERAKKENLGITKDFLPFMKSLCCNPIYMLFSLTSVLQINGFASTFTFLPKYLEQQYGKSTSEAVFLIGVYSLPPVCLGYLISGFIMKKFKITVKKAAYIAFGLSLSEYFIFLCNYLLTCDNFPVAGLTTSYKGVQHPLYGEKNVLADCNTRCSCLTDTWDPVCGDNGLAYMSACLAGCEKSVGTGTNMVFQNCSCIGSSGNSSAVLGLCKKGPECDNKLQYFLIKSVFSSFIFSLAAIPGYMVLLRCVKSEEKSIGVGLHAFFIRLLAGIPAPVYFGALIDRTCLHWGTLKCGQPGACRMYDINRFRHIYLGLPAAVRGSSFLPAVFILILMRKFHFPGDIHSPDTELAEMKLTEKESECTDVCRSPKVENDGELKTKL
Put plainly: in vitro. The note with it: 293FT cells transiently transfected with mouse Oatp1a1, probe radiolabeled S‐3100‐CA.
Experimental: as §1

One may read the inhibition as the percentage by which the read-out fell short of the control. Read a high inhibition as strong suppression. In the case of `CO[C@H]1/C=C/O[C@@]2(C)Oc3c(C)c(O)c4c(O)c(cc(O)c4c3C2=O)NC(=O)/C(C)=C\C=C\[C@H](C)[C@H](O)[C@@H](C)[C@@H](O)[C@@H](C)[C@H](OC(C)=O)[C@@H]1C` [RSV, rifamycin SV], the inhibition at 10 min, 10 µM in data set [1] and in data set [3] was more than 50% each time. Besides, in data set [2], the “Inhibition of S‐3100‐CA uptake (in words)” value is listed as “inhibited uptake via all OATPs other than human OATP2B1”.
